Our source for the Activity and IC50 values is ChEMBL document CHEMBL1143350, “Structure and activity of (2,8)-dicarba-(3,12)-cystino alpha-ImI, an alpha-conotoxin containing a nonreducible cystine analogue” (J Med Chem, 2009).

The source made the active and inactive calls. No cut-off for these calls is given here.

For assay [1], the species on record is Bos taurus. Kind of assay: (§1) Antagonist activity at nAChR in nicotine-stimulated bovine adrenal chromaffin cells assessed as inhibition of adrenaline release preincubated for 5 mins before nicotine challenge by RP-HPLC. Type of assay: functional.
Assay [2] is described as follows: as §1. Type of assay: functional. The note with it: Bos taurus.
For assay [3], the species on record is Bos taurus. Put plainly: (§2) Antagonist activity at nAChR in nicotine-stimulated bovine adrenal chromaffin cells assessed as inhibition of noradrenaline release preincubated for 5 mins before nicotine challenge by RP-HPLC. Type of assay: functional.
Assay [4] can be described thus: as §2. The assay is classed as functional. The note with it: Bos taurus.
Assay [5] has as its target Neuronal acetylcholine receptor subunit alpha-7 (Rattus norvegicus) (UniProt Q05941). Kind of assay: Antagonist activity at rat alpha7 nAChR expressed in Xenopus laevis oocytes assessed as inhibition of acetylcholine-evoked ion current at 2.5 uM treated 3 mins prior to acetylcholine challenge measured after 2 to 4 days by two-electrode voltage clamp method. Also on record: scale not given: the % may be the effect or the level left. The note with it: Oocyte. The assay is classed as functional, cell-based. (Two-electrode voltage clamp is typically applied to oocytes expressing channels or transporters.)

The target is the same in assay [6]. Put plainly: Activation of rat alpha7 nAChR expressed in Xenopus laevis oocytes at 2.5 uM. The assay is classed as cell-based. The note with it: Oocyte.

Chain of Neuronal acetylcholine receptor subunit alpha-7 (Rattus norvegicus) (Q05941 whole entry): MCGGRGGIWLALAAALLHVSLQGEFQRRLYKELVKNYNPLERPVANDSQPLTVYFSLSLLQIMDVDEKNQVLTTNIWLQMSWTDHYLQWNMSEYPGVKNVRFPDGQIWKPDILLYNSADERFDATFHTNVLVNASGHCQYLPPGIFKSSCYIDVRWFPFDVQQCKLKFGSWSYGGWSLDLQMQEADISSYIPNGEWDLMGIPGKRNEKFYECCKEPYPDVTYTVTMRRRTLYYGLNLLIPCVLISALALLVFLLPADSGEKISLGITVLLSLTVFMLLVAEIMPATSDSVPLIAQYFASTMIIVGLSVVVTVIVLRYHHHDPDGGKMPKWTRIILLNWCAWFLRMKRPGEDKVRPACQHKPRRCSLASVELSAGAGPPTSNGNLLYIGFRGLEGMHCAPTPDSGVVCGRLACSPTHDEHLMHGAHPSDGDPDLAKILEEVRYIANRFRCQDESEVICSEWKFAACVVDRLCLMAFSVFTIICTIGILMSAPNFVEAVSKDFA

In the case of `C=CN(CC(=O)NC1C/C=C/CC2NC(=O)[C@H](CCCNC(=N)N)NC(=O)[C@@H]3CCCN3C(=O)[C@H](CC(=O)O)NC(=O)[C@H](CO)NC(=O)[C@H](CSSC[C@@H](C(=O)O)NC(=O)[C@H](CCCNC(=N)N)NC(=O)[C@H](Cc3c[nH]c4ccccc34)NC(=O)[C@H](C)NC2=O)NC1=O)C(=O)CN` (single isomer, unassigned), the Activity entry in the assay filed under Bos taurus [1] and in the assay filed under Bos taurus [3] was “Dose-dependent effect” throughout. Also, the half-maximal inhibitory concentration (IC50) (as a rule, the concentration that gives 50% inhibition) in assay [2] turned out to be 15 µM; in assay [4] it was 20 µM. Moreover, the result in assay [5] was inactive.
For `C[C@H](NC(=O)[C@H](CS)NC(=O)[C@H](CCCNC(=N)N)NC(=O)[C@@H]1CCCN1C(=O)[C@H](CC(=O)O)NC(=O)[C@H](CO)NC(=O)[C@H](CS)NC(=O)[C@H](CS)NC(=O)CN)C(=O)N[C@@H](Cc1c[nH]c2ccccc12)C(=O)N[C@@H](CCCNC(=N)N)C(=O)N[C@@H](CS)C(N)=O`, in assay [6], the outcome was inactive. Further, the results for the Activity entry (in the assay listed under Bos taurus [1]; in the assay filed under Bos taurus [3]; in assay [5]) were “Dose-dependent effect”, “Dose-dependent effect” and 68%, respectively. The IC50 in assay [2] turned out to be 1.12 µM; in assay [4] it was 0.87 µM.
Consider `C=CN(CC(=O)NC1C/C=C\CC2NC(=O)[C@H](CCCNC(=N)N)NC(=O)[C@@H]3CCCN3C(=O)[C@H](CC(=O)O)NC(=O)[C@H](CO)NC(=O)[C@H](CSSC[C@@H](C(=O)O)NC(=O)[C@H](CCCNC(=N)N)NC(=O)[C@H](Cc3c[nH]c4ccccc34)NC(=O)[C@H](C)NC2=O)NC1=O)C(=O)CN` (single isomer, unassigned; isomer I), for which the result in assay [6] was inactive. Also, the values for the Activity result (in the assay listed under Bos taurus [1]; in the assay listed under Bos taurus [3]; in assay [5]) were “Dose-dependent effect”, “Dose-dependent effect” and 60%, respectively. For the same molecule, the IC50 turned out to be 10 µM in assay [2] and 17 µM in assay [4].
